Patent publication US20260034135A1, “USE OF N6-BENZYLAMINOPURINE AS AN APPETITE SUPPRESSANT” (THE GOVERNING COUNCIL OF THE UNIVERSITY OF TORONTO, priority 2022, published 2026)

Columns and labels:
[1] = Peripheral fat mass by Bruker scan; type: in vivo, CD-1 mice; settings: male CD-1, HFD, BAP emulsion 11 days, Bruker scan before and after
From the text: Male and female CD-1 mice were received at age 6-7 weeks and were acclimated on a chow diet for one week prior to experimentation. After acclimation to the facility, mice were switched to a 60% HFD. The male and female mice received HFD for 4 (male) and 5 or 16 (female) weeks prior to BAP exposure. The mice were then acclimated to the emulsion feeding protocol for 4 days prior to the start of BAP exposure using the method described in Kuster et al. (12). Two days prior to the start of the exposure period, a cohort of male mice underwent acute general anesthetic with isoflurane for baseline Bruker scanning to quantify peripheral fat mass. The mice were then weight-matched and randomly assigned to either the control or BAP group. During the exposure period, mice were restrained via scruffing (held at back of neck) and fed 200 μL of an emulsion containing 0.5% carboxymethyl cellulose and 50% honey with or without BAP at 2 hr prior to lights off at the facility daily.
The BAP concentrations were calibrated weekly to achieve a dosage of 300 mg/kg/day. All mice were kept on the 60% HFD throughout the exposure period. […] Hypothalamic collected from the mice were then used to isolate RNA and quantify gene expression using quantitative reverse transcription polymerase chain reaction (qRT-PCR).

[2] = system: insulin receptor subunit beta (InsRb); assay: Insulin receptor subunit beta protein level by Western blot in mHypoE-46; type: cell-based, mouse
Experimental: (§1) mHypoE-46 cells were serum starved in 5.5 mM glucose (LG) DMEM for 1 hour prior to treatment with vehicle (0.1% DMSO), 100 µM BAP or H20, […] 5-Aminoimidazole-4-carboxamide ribonucleotide (AICAR) or 0 mM glucose DMEM. Protein was harvested using 1× cell lysis buffer (Cell Signaling Technologies, Inc, CST) containing protease and phosphatase inhibitors. A total of 30 μg protein was separated on a 12% SDS-polyacrylamide gels and transferred onto PVDF membranes. Membranes were blocked in 5% milk dissolved in Tris-buffered saline with Tween 20 (TBS-T) for 1 h and incubated with primary antibody overnight at 4° C. phospho-AMPKα (Thr172; cat. 2532S, CST), and total AMPKα (cat. 2535S, CST); phospho-p70-S6K (Thr389; cat. 9205S, CST) and total p70-S6K (cat. 9202S, CST); insulin receptor ß (cat. 3025S, CST); phospho-AKT (Ser473; cat. 9271S, CST) and total AKT (cat. 9272S, CST); phospho-ERK1/2 (Thr202/Tyr204; cat. 9101, CST) and total ERK (cat. 4695, CST) were diluted 1:1000 in 5% milk in TBS-T. Membranes were washed and incubated with secondary HRP-linked antirabbit antibody (1:7500 in 5% milk in TBS-T, CST) for 1 h, washed, and imaged using the Signal Fire ECL Reagent (CST) on the iBright 1500 Imaging System (Thermofisher). Protein density was quantified using ImageJ or the iBright Imaging System.
The mHypoE-46 neurons were exposed to […] BAP for 16 h followed by RNA isolation. […]

[3] = system: ERK1/2; assay: ERK1/2 (Thr202/Tyr204) phosphorylation by Western blot in mHypoE-46; type: cell-based, mouse; settings: 100 μM BAP, 5 minutes
Experimental: mHypoE-46 cells were serum starved in 5.5 mM glucose (LG) DMEM for 1 hour prior to treatment with vehicle (0.1% DMSO), 100 µM BAP or H20, […] 5-Aminoimidazole-4-carboxamide ribonucleotide (AICAR) or 0 mM glucose DMEM. Protein was harvested using 1× cell lysis buffer (Cell Signaling Technologies, Inc, CST) containing protease and phosphatase inhibitors. A total of 30 μg protein was separated on a 12% SDS-polyacrylamide gels and transferred onto PVDF membranes. […] Protein density was quantified using ImageJ or the iBright Imaging System.
We also assessed the activity of another key signal transduction cascade, the MAPK ERK1/2 pathway. mHypoE-46 neurons were treated with 100 μM BAP and vehicle control for 5 minutes followed by protein isolation and Western blot analysis. The phosphorylation level of ERK1/2, one of the MAPK family members, was assessed.

[4] = system: AMPK; assay: AMPK phosphorylation by Western blot in mHypoE-46; type: cell-based, mouse; settings: 100 μM BAP, 15 min, mHypoE-46
Experimental: as §1

[5] = system: B16 melanoma cells; settings: protein kinase A-dependent manner; cited from earlier work
[6] = system: primary hypothalamic neurons; assay: Feeding neuropeptide expression in primary hypothalamic culture (qRT-PCR); type: cell-based, CD-1 mice; settings: 100 μM BAP, 16 hr, male- and female-derived cultures (both sexes)
Experimental: For cell culture experiments, total RNA was isolated using PureLink RNA isolation kit (Thermofisher Scientific, Burlington, ON, Canada) according to the manufacturer's instruction with on column DNase step (PureLink DNAse kit) or DNase I treatment to remove genomic DNA. For mouse experiments, total RNA was isolated using mirVana PARIS RNA and native protein isolation kit (Thermofisher Scientific). RNA quality and quantity were measured using Nanodrop 2000 and 500-1000 ng of complimentary DNA (cDNA) was synthesized with High Capacity cDNA Reverse Transcription kit (Applied biosystems, Thermofisher Scientific). Quantitative reverse transcription polymerase chain reaction (RT-qPCR) was performed with 12.5 ng of cDNA amplified with Platinum SYBR green qPCR SuperMix-UDG with ROX on an Applied Biosystems Prism 7900HT or PowerTrack Green Master Mix on an Applied Biosystems QuantStudio 5 and gene specific primers as per manufacturer's instructions (Table 1). Data was analyzed using […] and normalized to reference gene, either 60S ribosomal protein L7 (Rpl7) or Histone 3a (His).
Because the BAP was being fed to the mice, it is also important to determine what are the direct effects of BAP on native hypothalamic neurons, since the results may be due to an indirect effect from the periphery. Hypothalamus were extracted from male and female CD-1 mice fed a normal chow diet, and primary hypothalamic neurons were cultured from individual mice. The neurons were treated with 100 µM of BAP for 16 hr to assess the effect of BAP on feeding-related neuropeptide expression.

Structure (SMILES): c1ccc(CNc2ncnc3nc[nH]c23)cc1 [BAP, N6-benzylaminopurine]
- net peripheral fat [1]: do not observe any significant changes
- peripheral fat mass percentage [1]: do not observe any significant changes
- InsR protein level in response to cellular insulin resistance, BAP relative to vehicle control ([2]; 100 μM BAP 24 h, insulin pre-treatment (100 μM, 24 h)): no change
- basal levels of InsRb protein ([2]; 100 μM BAP, 24 hours): significantly increased
- ERK1/2 phosphorylation at Thr202/Tyr204 [3]: significantly decreased
- AMPK phosphorylation or activation vs vehicle [4]: significant decrease
- melanogenesis [5]: induce melanogenesis
- Agrp expression [6]: no effects
- Npy expression [6]: no effects
- Pomc expression [6]: significantly increase
